Reference: patent US7524853B2 (Solvay Pharmaceuticals B.V., priority 2003, dated 2009)

Assays:
Type in all cases: cell-based
[1] = molecular target: T1, 17β-hydroxysteroid dehydrogenase type 1 (17β-HSD type 1) (Homo sapiens, UniProt P14061); experiment: Inhibition of 17β-HSD type 1 in MCF-7 cells stably expressing the isoenzyme (tritium labeled estrone conversion, HPLC); details: MCF7, MCF-7 cells expressing 17β-HSD type 1, 2 nM tritium labeled estrone
T1 construct: expressed in transfected cells; host or cells: MCF-7
T1 sequence (P14061 1-328): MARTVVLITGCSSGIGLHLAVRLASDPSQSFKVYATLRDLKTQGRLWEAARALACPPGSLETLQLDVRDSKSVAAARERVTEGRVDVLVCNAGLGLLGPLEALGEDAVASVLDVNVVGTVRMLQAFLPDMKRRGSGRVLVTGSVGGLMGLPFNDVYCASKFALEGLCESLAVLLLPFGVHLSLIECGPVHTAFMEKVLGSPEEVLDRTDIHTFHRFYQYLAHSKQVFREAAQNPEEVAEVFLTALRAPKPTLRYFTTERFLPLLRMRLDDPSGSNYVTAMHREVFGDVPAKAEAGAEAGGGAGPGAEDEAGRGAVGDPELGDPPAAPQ
How it was run: (§1)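 Whole-cell MCF-7 lines, one isoenzyme each; substrate 2 nM ³H-estrone (type 1), ³H-estradiol (type 2) or ³H-androstenedione (type 3) in growth medium + compound at two concentrations. TCA stop, HPLC-radioflow read; % inhibition from reduced conversion vs no-compound control.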

[2] = molecular target: T2, 17β-hydroxysteroid dehydrogenase type 3 (17β-HSD type 3) (Homo sapiens, UniProt P37058); experiment: Inhibition of 17β-HSD type 3 in MCF-7 cells stably expressing the isoenzyme (tritium labeled androstenedione conversion, HPLC); details: MCF7, MCF-7 cells expressing 17β-HSD type 3, 2 nM tritium labeled androstenedione
T2 construct: expressed in transfected cells; host or cells: MCF-7
T2 sequence (P37058 1-310): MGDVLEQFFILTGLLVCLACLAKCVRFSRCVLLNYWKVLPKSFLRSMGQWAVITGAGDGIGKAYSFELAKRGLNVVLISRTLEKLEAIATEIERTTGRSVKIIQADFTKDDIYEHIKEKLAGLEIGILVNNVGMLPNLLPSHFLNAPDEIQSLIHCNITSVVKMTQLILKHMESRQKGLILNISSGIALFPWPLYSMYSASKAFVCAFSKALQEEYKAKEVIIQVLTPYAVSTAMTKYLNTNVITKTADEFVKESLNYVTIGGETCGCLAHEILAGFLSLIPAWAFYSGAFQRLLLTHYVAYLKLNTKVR
How it was run: as §1

[3] = molecular target: T3, 17β-hydroxysteroid dehydrogenase type 2 (17β-HSD type 2) (Homo sapiens, UniProt P37059); experiment: Inhibition of 17β-HSD type 2 in MCF-7 cells stably expressing the isoenzyme (tritium labeled estradiol conversion, HPLC); details: MCF7, MCF-7 cells expressing 17β-HSD type 2, 2 nM tritium labeled estradiol
T3 construct: expressed in transfected cells; host or cells: MCF-7
T3 sequence (P37059 1-387): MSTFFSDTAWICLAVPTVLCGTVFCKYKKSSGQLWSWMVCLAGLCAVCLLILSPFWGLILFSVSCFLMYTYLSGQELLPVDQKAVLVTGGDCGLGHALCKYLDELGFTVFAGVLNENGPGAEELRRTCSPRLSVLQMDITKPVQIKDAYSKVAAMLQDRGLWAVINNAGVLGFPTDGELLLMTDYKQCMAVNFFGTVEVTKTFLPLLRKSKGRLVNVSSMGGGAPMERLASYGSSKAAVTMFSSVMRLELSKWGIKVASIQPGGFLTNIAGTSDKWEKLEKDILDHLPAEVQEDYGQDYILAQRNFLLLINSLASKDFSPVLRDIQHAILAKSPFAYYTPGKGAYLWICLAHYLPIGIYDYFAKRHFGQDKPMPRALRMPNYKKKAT
How it was run: as §1

CC(=O)Oc1c(Br)ccc2c1sc1nc(-c3ccccc3)n(Cc3ccccc3)c(=O)c12 [No. 93, Acetic acid 3-benzyl-7-bromo-4-oxo-2-phenyl-3,4-dihydro-benzo[4,5]thieno[2,3-d]pyrimidin-8-yl ester]
inhibition at 1 µM ([1]; 1 μM test compound, read-out: % Inhibition HSD1 1 μM): 13.3% | inhibition at 10 µM ([1]; 10 μM test compound, read-out: % Inhibition HSD1 10 μM): 11.7% | inhibition at 1 µM ([2]; 1 μM test compound, read-out: % Inhibition HSD3 1 μM): 19.4% | inhibition at 10 µM ([2]; 10 μM test compound, read-out: % Inhibition HSD3 10 μM): 26.1% | inhibition at 1 µM ([3]; 1 μM test compound, read-out: % Inhibition HSD2 1 μM): 43.2% | inhibition at 10 µM ([3]; 10 μM test compound, read-out: % Inhibition HSD2 10 μM): 57.7%
